{"source": "paper PMC12066314", "about": "“Apigenin promotes melanogenesis and melanosome transport through the c-KIT/Raf-1/MAPK/CREB pathway in HEMCs” (Frontiers in Pharmacology, 2025)", "molecular_target": "c-KIT (Homo sapiens, UniProt P10721)", "sequence (P10721 26-976)": "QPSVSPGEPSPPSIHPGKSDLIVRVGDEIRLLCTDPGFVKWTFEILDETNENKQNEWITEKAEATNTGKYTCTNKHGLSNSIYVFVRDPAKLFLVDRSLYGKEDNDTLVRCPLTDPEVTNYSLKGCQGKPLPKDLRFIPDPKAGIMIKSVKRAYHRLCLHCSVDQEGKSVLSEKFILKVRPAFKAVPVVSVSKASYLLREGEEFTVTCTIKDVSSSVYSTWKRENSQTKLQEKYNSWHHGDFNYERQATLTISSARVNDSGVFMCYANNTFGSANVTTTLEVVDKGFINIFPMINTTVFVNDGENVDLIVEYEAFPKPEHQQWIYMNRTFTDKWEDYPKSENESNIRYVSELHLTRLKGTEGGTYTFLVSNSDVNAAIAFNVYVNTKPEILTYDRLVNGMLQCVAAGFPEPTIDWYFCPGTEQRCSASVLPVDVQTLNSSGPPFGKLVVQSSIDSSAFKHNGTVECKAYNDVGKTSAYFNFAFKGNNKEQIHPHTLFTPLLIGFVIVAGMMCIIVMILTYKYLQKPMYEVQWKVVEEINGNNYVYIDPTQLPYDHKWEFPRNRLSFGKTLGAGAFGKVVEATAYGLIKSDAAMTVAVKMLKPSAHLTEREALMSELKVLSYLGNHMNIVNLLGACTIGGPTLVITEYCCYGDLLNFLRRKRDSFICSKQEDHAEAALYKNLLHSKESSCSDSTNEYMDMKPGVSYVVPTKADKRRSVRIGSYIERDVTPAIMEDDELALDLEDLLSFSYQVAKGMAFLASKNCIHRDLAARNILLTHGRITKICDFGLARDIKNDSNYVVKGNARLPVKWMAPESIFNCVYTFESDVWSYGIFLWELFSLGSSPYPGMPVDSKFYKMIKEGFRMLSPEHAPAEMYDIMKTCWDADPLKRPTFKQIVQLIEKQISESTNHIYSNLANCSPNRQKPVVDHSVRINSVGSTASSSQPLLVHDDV", "test": "microscale thermophoresis (MST), […] target", "assay_type": "binding", "data": [{"smiles": "O=c1cc(-c2ccc(O)cc2)oc2cc(O)cc(O)c12", "note": "[Apigenin]", "values": [{"measurement": "Kd", "value": 2600, "unit": "nM"}]}]}
